Data as given in PubChem BioAssay (NCI).
Several values for one entry are separate records, joined by “and”; a condition that tells them apart may be missing. Identical values can stand only once.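 Step 1: Grow cells in 96-well plates. Step 2: Expose to compound for 48 hours at 5 concentrations. Step 3: Interpolate endpoints linearly; if unreached, use highest concentration. At the GI50, growth is halved. TGI marks complete inhibition of growth.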

Legend:
Test in all cases: growth of human tumour cells (NCI), 48 h
KM12 colon = test system: KM12 colon
HS 578T breast = test system: HS 578T breast
CCRF-CEM leukemia = test system: CCRF-CEM leukemia
PC-3 prostate = test system: PC-3 prostate
OVCAR-4 ovarian = test system: OVCAR-4 ovarian
CAKI-1 renal = test system: CAKI-1 renal
T-47D breast = test system: T-47D breast

SMILES | GI50 (KM12 colon) | TGI (KM12 colon) [µM] | GI50 (HS 578T breast) | TGI (HS 578T breast) | GI50 (CCRF-CEM leukemia) | TGI (CCRF-CEM leukemia) [µM] | GI50 (PC-3 prostate) | TGI (PC-3 prostate) [µM] | GI50 (OVCAR-4 ovarian) [µM] | TGI (OVCAR-4 ovarian) [µM] | GI50 (CAKI-1 renal) | TGI (CAKI-1 renal) | GI50 (T-47D breast) | TGI (T-47D breast)
Cc1nc2cccc(NCc3ccc(C(=O)NO)cc3)c2c(=O)n1-c1ccccc1 | 1.8 µM | 3.59 | 3.04 µM | > 100 µM | 2.09 µM | > 100 | 1.9 µM | 6.14 | 2.67 | 9.64 | 1.67 µM | 3.62 µM |  | 
O=C1C=Cc2ccccc2/C1=C/c1[nH]c(=O)[nH]c1O | 2.99 µM | 9.34 |  |  | 4.01 µM | > 100 | 3.61 µM | > 100 | 4.22 | 23.4 | 5.7 µM | 42.7 µM | 2.5 µM | 25.6 µM
COC(=O)Nc1nc2ccccc2c(=O)[nH]1 |  | > 100 |  | > 100 µM |  | > 100 |  | > 100 |  | > 100 |  | > 100 µM |  | > 100 µM
OCCCCC#Cc1ccccc1C#Cc1ccccc1C(F)(F)F | 3.57 µM | 16.7 | 11.8 µM | 37.1 µM | 3.91 µM | 17.2 | 8.77 µM | 21 | 18.4 | 36.4 | 5.37 µM | 17.9 µM | 19.8 µM | 47.2 µM
CNC(=O)c1cccc(-c2ccc3c(N4CCOC[C@@H]4C)nc(N4CCOC[C@@H]4C)nc3n2)c1 | 0.0947 µM and 0.273 µM and 0.179 µM | > 100 | 0.0627 µM and 0.0618 µM and 0.116 µM | 0.448 µM and 0.32 µM and 0.459 µM | 0.177 µM and 0.217 µM and 0.163 µM | > 100 | 0.0219 µM and 0.0809 µM and 0.0384 µM |  |  |  | 0.0693 µM and 0.148 µM and 0.144 µM | 1.83 µM and > 3.36 µM | 0.0168 µM and 0.0287 µM and 0.0186 µM | 0.246 µM and 0.212 µM and 0.103 µM
Nc1ccccc1C#C/C=C\C#Cc1ccc(Cl)cc1Cl | 2.72 µM | 14.4 | 3.61 µM | 8.49 µM | 0.376 µM | 10.6 | 9.04 µM | 42.1 | 28.5 | > 100 | 3.38 µM | 13.5 µM | 18.9 µM | 78.5 µM
CCSc1nc(N=Cc2cccs2)c2cn[nH]c2n1 | 3.31 µM | 16.1 | 16.2 µM | > 100 µM |  |  | 20.7 µM | > 100 | 17.8 | 67.4 | 18 µM | > 100 µM | 23.6 µM | 95 µM
C/C=C(\C)C(=O)O[C@H]1C=CC(=O)O[C@H]1CNC(=O)[C@H](C)O | 17 µM | 32 | 18.6 µM | 47.2 µM |  |  | 24.5 µM | 79.4 | 17.3 | 36.1 | 26.8 µM | 44.4 µM | 20 µM | 73.9 µM
COC(=O)/C(=C\c1c(C)[nH]c2ccccc12)S(=O)(=O)c1ccccc1 | 2.37 µM | 6.31 | 2.85 µM | 13.6 µM |  |  | 5.54 µM | > 100 | 5.71 | > 100 | 3.33 µM | 16.7 µM | 3.21 µM | 16.6 µM
CC(C)(O)C1OCC(C2CCC3(C)C4=CCC5C(C)(C)C(O)CCC5(C)C4CCC23C)CC1O (stereo not drawn) |  | 27 |  | 29.3 µM |  | > 100 |  | 26.7 |  | 27.5 |  | 29.4 µM |  | 26.6 µM
C=C1C(=O)OC2CC3(CO3)C3C(O)C(O)CC3(C)CC12 (stereo not drawn) |  | > 100 |  | > 100 µM |  | 45.9 |  | > 100 |  | > 100 |  | 36.6 µM |  | > 100 µM
O=C(NC(=S)Nc1ccc(Cl)cc1)c1ccccc1 | > 100 µM | > 100 | 38.8 µM | > 100 µM | > 100 µM | > 100 | > 100 µM | > 100 | > 46.5 | > 100 | > 79.7 µM | > 100 µM | > 90.3 µM | > 100 µM
COc1ccc(-c2nc(-c3cn(C)c4ncccc34)cs2)cc1 | 8.01 µM | > 100 | > 100 µM | > 100 µM | > 100 µM | > 100 | 18.3 µM | > 100 | > 100 | > 100 | 18.2 µM | > 100 µM | 12.5 µM | > 100 µM
O=C1c2ccccc2-c2c1c1ccccc1c(=O)n2CCNCCNCCn1c2c(c3ccccc3c1=O)C(=O)c1ccccc1-2 | 0.0327 µM | 1.72 | 4.28 µM | 38.5 µM |  |  | 0.701 µM | 19.3 | 1.43 | 14.9 | 0.527 µM | 18.4 µM | 18.1 µM | 41.5 µM
Cc1[nH]c(/C=C2\C(=O)Nc3ccc(F)cc32)c(C)c1C(=O)NC[C@H](O)CN1CCOCC1 | 0.0691 µM | > 10 | 2.12 µM | > 10 µM | 0.0624 µM | > 10 | 2.64 µM | > 10 | 7.95 | > 10 | 1.66 µM | > 10 µM | > 10 µM | > 10 µM
COc1cc2c(/C=C3/C(=O)Nc4ccccc43)c(Cl)n(Cc3ccccc3[N+](=O)[O-])c2cc1C | 4.9 µM | 21.3 | 15 µM | 94 µM | 5.62 µM | > 100 | 5.08 µM | 25.6 | 4.18 | 22.2 | 6.39 µM | 23.3 µM | 4.11 µM | 21.8 µM
COc1ccc(-c2nc(-c3ccccc3)c(-c3ccccc3)n2C2CC2)cc1OC1CCCC1 | 50.9 µM | > 165 | 26.3 µM | > 165 µM | 33.3 µM | > 165 | 22.6 µM | > 165 | 97.4 | > 165 | 50.2 µM | > 165 µM | 51.5 µM | > 165 µM
O=C(Nc1ncc(Cc2ccccc2Cl)s1)c1ccc2c(c1)OCCO2 | 0.322 µM | > 35.6 | 0.354 µM | 35.5 µM | 0.36 µM | > 100 | 0.417 µM | > 100 | 0.693 | > 68.2 | 0.306 µM | > 47.9 µM | 0.333 µM | > 100 µM
O=C(Oc1ccc(CCl)cc1)c1ccccc1 | 0.166 µM | 0.323 | 0.121 µM | 0.438 µM | 0.0335 µM | 0.146 | 0.15 µM | 0.332 | 0.159 | 0.313 | 0.16 µM | 0.303 µM |  | 
